Calls of active or inactive are those of the source. The rule behind the calls is not given here.
Columns and labels:
[1] = target: Protein cereblon/Histone deacetylase 9 (Homo sapiens) (UniProt Q9UKV0+Q96SW2); experiment: Protac activity at CRBN/HDAC9 in human A549 cells assessed as reduction in HDAC9 protein level at 0.1 to 10 uM by Western blot analysis; format: cell-based; conditions: dose 0.1-10 µM
[2] = target: T1, Protein cereblon/Histone deacetylase 8 (Homo sapiens) (UniProt Q9BY41+Q96SW2); experiment: In vivo protac activity at CRBN/HDAC8 in human A549 cells xenografted in NOD/SCID mouse assessed as degradation of HDAC8 at 5 mg/kg, ip administered every 5 days measured at day 30 by Western blot analysis; format: functional, organism-based; conditions: time 30.0 day
A549 [3] = experiment: Inhibition of DNA damage repair in human A549 cells assessed as reduction in Ku80 protein level at 5 uM incubated for 24 hrs by immunofluorescence staining based analysis; format: functional, cell-based
[4] = target: Protein cereblon/Histone deacetylase 3 (Homo sapiens) (UniProt O15379+Q96SW2); experiment: Protac activity at CRBN/HDAC3 in human A549 cells assessed as reduction in HDAC3 protein level at 0.1 to 10 uM by Western blot analysis; format: cell-based; conditions: dose 0.1-10 µM
A549 [5] = experiment: Effect on NPTX1 gene in human A549 cells at 10 uM measured after 20 hrs by RNA sequencing analysis; format: functional, cell-based
A549 [6] = experiment: Inhibition of HDAC8 foci formation in human A549 cells measured after 20 hrs by DAPI staining based immunofluorescence assay; format: functional, cell-based; conditions: dose 0.5-8 µM
[7] = target: T1, Protein cereblon/Histone deacetylase 8 (Homo sapiens); experiment: Protac activity at CRBN/HDAC8 in human A549 cells at 10 uM measured preincubated for 20 hrs followed by drug washout and measured after 48 hrs by Western blot analysis; format: cell-based
A549 [8] = experiment: Induction of cell cycle arrest in human A549 cells assessed as accumulation of cells at G2/M phase at 20 uM measured after 72 hrs by propidium iodide staining based flow cytometry analysis; format: functional
A549 [9] = experiment: Induction of apoptosis in human A549 cells assessed as late apoptotic cells at 5 uM by annexin V-FITC staining based flow cytometry (reference value: 0.00%); format: functional
Jurkat = experiment: Antiproliferative activity against human Jurkat cells at 0.1 to 10 uM measured after 72 hrs by CCK-8 method; format: functional, cell-based; conditions: dose 0.1-10 µM
A549 [10] = experiment: Induction of apoptosis in human A549 cells assessed as necrotic cells at 10 uM incubated for 72 hrs by annexin V-FITC staining based flow cytometry relative to control; format: functional
A549 [11] = experiment: Induction of apoptosis in human A549 cells assessed as necrotic cells at 2.5 uM incubated for 72 hrs by annexin V-FITC staining based flow cytometry relative to control; format: functional
A549 [12] = experiment: Antitumor activity against human A549 cells xenografted in NOD/SCID mouse at 5 mg/kg, ip administered every 5 days measured at day 30; format: functional, organism-based; conditions: time 30.0 day
[13] = target: T1, Protein cereblon/Histone deacetylase 8 (Homo sapiens); experiment: Protac activity at CRBN/HDAC8 in human HCT-116 cells assessed as reduction in HDAC8 protein level at 0.1 to 10 uM by Western blot analysis; format: cell-based; conditions: dose 0.1-10 µM
A549 [14] = experiment: Downregulation of ABHD6 in human A549 cells measured after 20 hrs by proteomic analysis; format: functional, cell-based
[15] = target: T1, Protein cereblon/Histone deacetylase 8 (Homo sapiens); experiment: Protac activity at CRBN/HDAC8 in human A549 cells assessed as degradation of HDAC8 at 2 uM measured after 20 hrs by Western blot analysis relative to control; format: cell-based
A549 [16] = experiment: Effect on OASL gene in human A549 cells at 10 uM measured after 20 hrs by RNA sequencing analysis; format: functional, cell-based
A549 [17] = experiment: Induction of apoptosis in human A549 cells assessed as viable cells at 10 uM incubated for 72 hrs by annexin V-FITC staining based flow cytometry (reference value: 99.9%); format: functional; conditions: read-out: Activity
A549 [18] = experiment: Effect on DKK1 gene in human A549 cells at 10 uM measured after 20 hrs by RNA sequencing analysis; format: functional, cell-based
[19] = target: Protein cereblon/Histone deacetylase 2 (Homo sapiens) (UniProt Q92769+Q96SW2); experiment: Protac activity at CRBN/HDAC2 in human A549 cells assessed as reduction in HDAC2 protein level at 0.1 to 10 uM by Western blot analysis; format: cell-based; conditions: dose 0.1-10 µM
[20] = target: T1, Protein cereblon/Histone deacetylase 8 (Homo sapiens); experiment: Protac activity at CRBN/HDAC8 in human A549 cells assessed as degradation of HDAC8 at 200 nM measured after 20 hrs by Western blot analysis relative to control; format: cell-based
A549 [21] = experiment: Induction of apoptosis in human A549 cells assessed as viable cells at 5 uM by annexin V-FITC staining based flow cytometry (reference value: 100%); format: functional; conditions: read-out: Activity
A549 [22] = experiment: Induction of apoptosis in human A549 cells assessed as early apoptotic cells at 10 uM incubated for 72 hrs by annexin V-FITC staining based flow cytometry (reference value: 0.099%); format: functional
A549 [23] = experiment: Antitumor activity against human A549 cells xenografted in NOD/SCID mouse assessed as decrease in HDAC8 expression at 5 mg/kg, ip administered every 5 days measured at day 30 by […] analysis; format: functional, organism-based; conditions: time 30.0 day
A549 [24] = experiment: Effect on TIPARP gene in human A549 cells at 10 uM measured after 20 hrs by RNA sequencing analysis; format: functional, cell-based
A549 [25] = experiment: Antitumor activity against human A549 cells xenografted in NOD/SCID mouse assessed as increase in gamma-H2AX expression at 5 mg/kg, ip administered every 5 days measured at day 30 under irradiation condition by […] analysis; format: functional, organism-based; conditions: time 30.0 day
A549 [26] = experiment: Antitumor activity against human A549 cells xenografted in NOD/SCID mouse assessed as decrease in HDAC8 expression at 5 mg/kg, ip administered every 5 days measured at day 30 under irradiation condition by […] analysis; format: functional, organism-based; conditions: time 30.0 day
A549 [27] = experiment: Antitumor activity against human A549 cells xenografted in NOD/SCID mouse assessed as increase in number of necrotic cells at 5 mg/kg, ip administered every 5 days measured at day 30 under irradiation condition by H and E staining based analysis; format: functional, organism-based; conditions: time 30.0 day
A549 [28] = experiment: Antitumor activity against human A549 cells xenografted in NOD/SCID mouse at 5 mg/kg, ip administered every 5 days measured at day 30 followed by irradiation; format: functional, organism-based; conditions: time 30.0 day
A549 [29] = experiment: Induction of apoptosis in human A549 cells assessed as necrotic cells at 5 uM incubated with compound followed by irradiation by annexin V-FITC staining based flow cytometry (reference value: 2.02%); format: functional
HBEC3-KT = experiment: Antiproliferative activity against human HBEC3-KT cells at 0.1 to 10 uM measured after 72 hrs by CCK-8 method; format: functional, cell-based; conditions: dose 0.1-10 µM
[30] = target: T1, Protein cereblon/Histone deacetylase 8 (Homo sapiens); experiment: Protac activity at CRBN/HDAC8 in human A549 cells assessed as maximum degradation at 10 uM incubated for 20 hrs by ELISA method relative to control; format: cell-based
A549 [31] = experiment: Induction of apoptosis in human A549 cells assessed as viable cells at 2.5 uM incubated for 72 hrs by annexin V-FITC staining based flow cytometry (reference value: 99.9%); format: functional; conditions: read-out: Activity
[32] = Toxicity in NOD/SCID mouse xenografted with human A549 cells assessed as change in body weight loss at 5 mg/kg, ip administered every 5 days measured at day 30; format: organism-based; conditions: in vivo, 720 h, time 30 day
[33] = target: T1, Protein cereblon/Histone deacetylase 8 (Homo sapiens); experiment: Protac activity at CRBN/HDAC8 in human A549 cells assessed as reduction in HDAC8 protein level at 10 uM by Western blot analysis relative to control; format: cell-based; design: scale not given: the % may be the effect or the level left

T1 sequence (Q96SW2 whole entry, looked up): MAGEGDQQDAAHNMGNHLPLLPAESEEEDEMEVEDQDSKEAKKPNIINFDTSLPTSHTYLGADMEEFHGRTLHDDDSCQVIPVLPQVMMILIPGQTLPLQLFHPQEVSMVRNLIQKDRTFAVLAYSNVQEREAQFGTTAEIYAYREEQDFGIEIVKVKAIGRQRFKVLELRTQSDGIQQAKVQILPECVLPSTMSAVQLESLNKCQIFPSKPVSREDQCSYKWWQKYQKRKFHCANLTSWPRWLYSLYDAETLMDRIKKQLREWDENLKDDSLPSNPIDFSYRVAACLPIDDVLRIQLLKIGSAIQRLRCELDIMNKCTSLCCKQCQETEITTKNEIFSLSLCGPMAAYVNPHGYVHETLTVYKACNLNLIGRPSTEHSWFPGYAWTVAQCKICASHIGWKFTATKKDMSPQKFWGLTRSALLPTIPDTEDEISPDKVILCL
T1 sequence (Q9BY41 whole entry, looked up): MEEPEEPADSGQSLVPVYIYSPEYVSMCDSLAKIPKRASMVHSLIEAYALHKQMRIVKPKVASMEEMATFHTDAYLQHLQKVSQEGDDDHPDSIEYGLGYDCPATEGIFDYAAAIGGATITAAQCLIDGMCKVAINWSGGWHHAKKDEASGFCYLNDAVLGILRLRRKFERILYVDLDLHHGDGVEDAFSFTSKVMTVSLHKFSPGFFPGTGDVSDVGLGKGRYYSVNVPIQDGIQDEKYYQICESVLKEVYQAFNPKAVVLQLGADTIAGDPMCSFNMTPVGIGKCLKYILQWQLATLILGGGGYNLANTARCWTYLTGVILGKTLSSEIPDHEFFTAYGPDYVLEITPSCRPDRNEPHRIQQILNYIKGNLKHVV
Sequence of Protein cereblon/Histone deacetylase 2 (Homo sapiens) (Q92769 whole entry, looked up): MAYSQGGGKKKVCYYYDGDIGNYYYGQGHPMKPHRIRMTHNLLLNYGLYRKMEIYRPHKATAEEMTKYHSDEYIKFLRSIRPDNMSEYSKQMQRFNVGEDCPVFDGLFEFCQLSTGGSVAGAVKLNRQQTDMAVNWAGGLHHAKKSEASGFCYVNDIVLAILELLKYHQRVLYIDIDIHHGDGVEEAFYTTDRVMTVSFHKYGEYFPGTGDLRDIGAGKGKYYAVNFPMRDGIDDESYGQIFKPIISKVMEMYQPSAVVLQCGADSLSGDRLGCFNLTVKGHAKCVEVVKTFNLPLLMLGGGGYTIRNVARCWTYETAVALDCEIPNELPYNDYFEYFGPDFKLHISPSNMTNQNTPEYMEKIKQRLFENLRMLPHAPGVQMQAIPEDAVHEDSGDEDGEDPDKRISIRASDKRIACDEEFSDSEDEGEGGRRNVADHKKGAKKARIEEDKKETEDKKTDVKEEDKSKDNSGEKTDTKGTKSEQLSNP
Sequence of Protein cereblon/Histone deacetylase 2 (Homo sapiens) (Q96SW2 whole entry, looked up): as the sequence (Q96SW2 whole entry, looked up) above
Sequence of Protein cereblon/Histone deacetylase 3 (Homo sapiens) (O15379 whole entry, looked up): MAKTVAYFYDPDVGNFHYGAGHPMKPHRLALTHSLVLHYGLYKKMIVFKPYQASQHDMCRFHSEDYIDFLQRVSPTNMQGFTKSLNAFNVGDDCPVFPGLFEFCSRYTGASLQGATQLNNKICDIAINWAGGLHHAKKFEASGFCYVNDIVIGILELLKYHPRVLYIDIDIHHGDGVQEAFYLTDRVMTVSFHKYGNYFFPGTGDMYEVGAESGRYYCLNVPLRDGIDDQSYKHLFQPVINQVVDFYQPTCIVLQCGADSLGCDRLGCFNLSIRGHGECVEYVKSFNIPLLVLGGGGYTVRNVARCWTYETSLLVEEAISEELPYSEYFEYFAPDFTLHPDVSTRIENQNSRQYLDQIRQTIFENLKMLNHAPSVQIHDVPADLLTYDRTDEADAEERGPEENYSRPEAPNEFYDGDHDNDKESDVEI
Sequence of Protein cereblon/Histone deacetylase 3 (Homo sapiens) (Q96SW2 whole entry, looked up): as the sequence (Q96SW2 whole entry, looked up) above
Sequence of Protein cereblon/Histone deacetylase 9 (Homo sapiens) (Q96SW2 whole entry, looked up): as above
Sequence of Protein cereblon/Histone deacetylase 9 (Homo sapiens) (Q9UKV0 whole entry, looked up): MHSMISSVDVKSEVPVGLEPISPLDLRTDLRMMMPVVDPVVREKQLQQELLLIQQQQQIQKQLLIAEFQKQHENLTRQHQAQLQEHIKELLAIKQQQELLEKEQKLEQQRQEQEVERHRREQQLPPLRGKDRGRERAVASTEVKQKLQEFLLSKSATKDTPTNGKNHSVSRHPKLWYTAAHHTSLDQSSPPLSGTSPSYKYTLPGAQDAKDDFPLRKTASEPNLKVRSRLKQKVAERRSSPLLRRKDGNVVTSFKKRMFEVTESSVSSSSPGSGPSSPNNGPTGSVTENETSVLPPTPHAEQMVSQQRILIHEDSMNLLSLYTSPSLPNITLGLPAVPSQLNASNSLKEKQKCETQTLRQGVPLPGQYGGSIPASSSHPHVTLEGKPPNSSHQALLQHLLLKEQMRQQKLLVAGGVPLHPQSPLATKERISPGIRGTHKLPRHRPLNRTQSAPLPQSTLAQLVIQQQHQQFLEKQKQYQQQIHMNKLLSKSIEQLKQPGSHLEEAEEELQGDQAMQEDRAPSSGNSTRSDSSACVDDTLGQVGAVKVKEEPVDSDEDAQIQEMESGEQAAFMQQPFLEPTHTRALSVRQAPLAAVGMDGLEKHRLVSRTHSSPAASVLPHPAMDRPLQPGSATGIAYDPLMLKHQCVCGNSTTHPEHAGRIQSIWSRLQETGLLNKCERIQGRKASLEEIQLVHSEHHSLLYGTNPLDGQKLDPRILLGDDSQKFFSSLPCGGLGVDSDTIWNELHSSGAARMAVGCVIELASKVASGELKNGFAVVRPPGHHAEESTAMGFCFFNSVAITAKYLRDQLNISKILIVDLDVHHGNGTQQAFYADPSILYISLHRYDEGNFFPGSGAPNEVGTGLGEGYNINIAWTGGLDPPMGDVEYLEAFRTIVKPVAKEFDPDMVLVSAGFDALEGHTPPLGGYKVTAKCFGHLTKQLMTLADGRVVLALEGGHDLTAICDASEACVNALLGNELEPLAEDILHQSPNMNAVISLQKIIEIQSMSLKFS

O=C1CCC(N2C(=O)c3cccc(NCc4cn(CCOCCOc5ccc(Cn6ccc7ccc(C(=O)NO)cc76)cc5)nn4)c3C2=O)C(=O)N1 (stereo not given)
Activity [1]: inactive | Activity [2]: Active | inhibition (A549 [3]): Active | Activity [4]: inactive | Activity (A549 [5]): Active | inhibition (A549 [6]): Dose-Dependent Effect | Activity [7]: inactive | Activity (A549 [8]): inactive | Activity (A549 [9]): 6.19% | Activity (Jurkat): Active | Activity (A549 [10]): 1.52% | Activity (A549 [11]): 0.57% | Activity (A549 [12]): Active | Activity [13]: Active | Activity (A549 [14]): Active | Activity [15]: 85.4% | Activity (A549 [16]): Active | viability at 10 µM (A549 [17]): 42.7% | Activity (A549 [18]): Active | Activity [19]: inactive | Activity [20]: 39.7% | viability at 5 µM (A549 [21]): 77% | Activity (A549 [22]): 23.5% | Activity (A549 [23]): Active | Activity (A549 [24]): Active | Activity (A549 [25]): Active | Activity (A549 [26]): Active | Activity (A549 [27]): Active | Activity (A549 [28]): Active | Activity (A549 [29]): 0.75% | Activity (HBEC3-KT): Active | Emax [30]: > 95% | viability at 2.5 µM (A549 [31]): 61.7% | Activity [32]: Non-Toxic | Activity [33]: > 90%

Source: ChEMBL document CHEMBL5316263, “Structure-Based Discovery of Selective Histone Deacetylase 8 Degraders with Potent Anticancer Activity” (J Med Chem, 2023)
